Results as given in patent US7273878B2, “Difluoroalkene derivative, pest control agent containing the same, and intermediate therefor” (Kumiai Chemical Industry Co., Ltd., priority 2001, dated 2007).

What was measured:
Format in all cases: in vivo
Tetranychus urticae [1] = experiment: Prevention/extermination test against Tetranychus urticae (500 ppm); settings: 312 h, 500 ppm active ingredient, soybean seedlings inoculated with imago, 25° C., after 13 days, read-out: prevention/extermination titer (preventive titer)
Description: (§1) The wettable powder prepared according to the above Preparation Example 2 was diluted with water to a concentration of 500 ppm as a concentration of active ingredient. Soybean seedlings which had previously been inoculated with the imago of Tetranychus urticae were soaked in the test solution, then air dried. The treated soybean seedlings were left at the constant temperature of 25° C. After 13 days from the treatment, the number of surviving mites was counted, and the prevention/extermination titer was calculated according to the formula 2 below.
(§2) In this test, representative compounds having the acaricidal effect with more than 90 of prevention/extermination titer include compound No. 63, 93, 77, 81, 105, 169, 190, 196 and 208.

Nilaparvata lugenis = experiment: Insecticidal test for Nilaparvata lugenis; settings: 144 h, 500 ppm active ingredient (wettable powder), 4-instar larvae on germinated rice paddy, 25° C., after 6 days, read-out: mortality rate
Description: The wettable powder prepared according to the above Preparation Example 2 was diluted with water to a concentration of 500 ppm as a concentration of active ingredient. After soaking the germinated rice paddy in the test solution, the paddy was transferred into a 60 ml volume of plastic cup. Ten (10) heads of 4-instar larvae of Nilaparvata lugenis were inoculated on the paddy and capped, then left at the constant temperature of 25° C. After 6 days from the inoculation, the number of surviving insects was counted, and mortality rate of the insect was calculated according to the following formula 1. mortality rate (%)=[(10−number of surviving insect in the test field)/10]×100 (1)

ddy mouse (Slc:ddy) = experiment: Oral acute toxicity test; set-up: key: 0/3 means none of 3 recipient animals died; 1/3 means one out of 3 recipient animals died; 2/3 means 2 out of 3 recipient animals died; 3/3 means all 3 recipient animals died; settings: oral 30 mg/kg, mortality investigated for 7 days; for Test result Female (mortality, animals died out of 3): female ddy mouse; for Test result Male (mortality, animals died out of 3): male ddy mouse
Description: Oral acute toxicity test was conducted according to the method described in the guideline in “Guideline for the Preparation of Test Report on the Toxicity Studies”, published by the Ministry of Agriculture, Forestry and Fisheries of Japan. Experimental animals, 3 each of male and female of 7 weeks aged ddy mouse (Slc:ddy), were obtained from SLC Japan Inc. The compounds of the present invention and the reference substances were suspended in 0.5% sodium carboxymethyl cellulose or corn oil to give a 30 (mg/kg) equivalent amount for a dosage of 10 ml per 1 kg of body weight. The suspensions were inoculated using a sonde directly into the stomach of test animals which were fasted for 3 hours before inoculation. The test animals were fasted for additional 3 hours after inoculation, and the mortality of the inoculated animal was investigated for 7 days. In this table, 0/3 means none of 3 recipient animals died, 1/3 means one out of 3 recipient animals died, 2/3 means 2 out of 3 recipient animals died, 3/3 means all 3 recipient animals died.

Tetranychus urticae [2] = experiment: Prevention/extermination test against Tetranychus urticae (0.8 ppm); settings: 312 h, 0.8 ppm active ingredient, soybean seedlings inoculated with imago, 25° C., after 13 days, read-out: prevention/extermination titer
Description: as §1
The wettable powder prepared according to the above Preparation Example 2 was diluted with water to a concentration of 0.8 ppm as a concentration of active ingredient. The same experiment as in Test Example 2 was carried out, and the prevention/extermination titer was calculated according to the formula 2.
as §2

SMILES | pest or weed control at 500 ppm (Tetranychus urticae [1]) | pest or weed control at 0.8 ppm (Tetranychus urticae [2]) | further results
CC(CCCCOC(=O)c1cc2ccccc2o1)=C(F)F [Compound 7, 6,6-difluoro-5-methyl-5-hexenyl benzo[b]furan-2-carboxylate] | > 90% |  | 
CC(CCCCOC(=O)c1c(-c2ccccc2)noc1C)=C(F)F [Compound 12, 6,6-difluoro-5-methyl-5-hexenyl 5-methyl-3-phenyl-isoxazole-4-carboxylate] | > 90% |  | 
CC(CCCCOC(=O)c1c[nH]c2ccccc12)=C(F)F [Compound 13, 6,6-difluoro-5-methyl-5-hexenyl 1H-indole-3-carboxylate] | > 90% |  | 
CC(CCCCOC(=O)c1cc2ccccc2cn1)=C(F)F [Compound 27, 6,6-difluoro-5-methyl-5-hexenyl isoquinoline-3-carboxylate] | > 90% |  | 
CC(CCCCOC(=O)c1ccc2nn(CCCCC(C)=C(F)F)nc2c1)=C(F)F [Compound 31, 6,6-difluoro-5-methyl-5-hexenyl 2-(6,6-difluoro-5-methyl-5-hexenyl)-2H-benzotriazole-5-carboxylate] | > 90% |  | 
CC(CCCCOC(=O)c1cnc2ccccc2n1)=C(F)F [Compound 32, 6,6-difluoro-5-methyl-5-hexenyl quinoxaline-2-carboxylate] | > 90% |  | mortality at 500 ppm (Nilaparvata lugenis): ≥ 90%
CC(CCCCOC(=O)c1n[nH]c2ccccc12)=C(F)F [Compound 33, 6,6-difluoro-5-methyl-5-hexenyl 1H-indazole-3-carboxylate] | > 90% |  | mortality at 500 ppm (Nilaparvata lugenis): ≥ 90%
CC(CCCCOC(=O)c1ccc2c(c1)ncn2CCCCC(C)=C(F)F)=C(F)F [Compound 35, 6,6-difluoro-5-methyl-5-hexenyl 1-(6,6-difluoro-5-methyl-5-hexenyl)-1H-benzoimidazole-5-carboxylate] | > 90% |  | 
CC(CCCCOC(=O)c1cnnc2ccccc12)=C(F)F [Compound 37, 6,6-difluoro-5-methyl-5-hexenyl cinnoline-4-carboxylate] | > 90% |  | 
CC(CCCCOC(=O)c1ccc2nsnc2c1)=C(F)F [Compound 42, 6,6-difluoro-5-methyl-5-hexenyl benzo[1,2,5]-thiadiazole-5-carboxylate] | > 90% |  | 
CC(CCOC(=O)c1sc(-c2ccccc2)nc1C)=C(F)F [Compound 63, 4,4-difluoro-3-methyl-3-butenyl 4-methyl-2-phenyl-thiazole-5-carboxylate] |  | > 90% | Test result Female (mortality, animals died out of 3) (ddy mouse (Slc:ddy)): 0/3; Test result Male (mortality, animals died out of 3) (ddy mouse (Slc:ddy)): 0/3
CCCCOc1ccc(C(=O)OCCC(C)=C(F)F)cn1 [Compound 77, 4,4-difluoro-3-methyl-3-butenyl 6-butoxynicotinate] |  | > 90% | Test result Female (mortality, animals died out of 3) (ddy mouse (Slc:ddy)): 0/3; Test result Male (mortality, animals died out of 3) (ddy mouse (Slc:ddy)): 0/3
CC(CCOC(=O)c1ccc(OC2CCCC2)nc1)=C(F)F [Compound 81, 4,4-difluoro-3-methyl-3-butenyl 6-cyclopentyloxy-nicotinate] |  | > 90% | Test result Female (mortality, animals died out of 3) (ddy mouse (Slc:ddy)): 0/3; Test result Male (mortality, animals died out of 3) (ddy mouse (Slc:ddy)): 0/3
CC(CCOC(=O)c1cnc(-c2ccccc2)nc1C)=C(F)F [Compound 93, 4,4-difluoro-3-methyl-3-butenyl 4-methyl-2-phenyl-pyrimidine-5-carboxylate] |  | > 90% | Test result Female (mortality, animals died out of 3) (ddy mouse (Slc:ddy)): 0/3; Test result Male (mortality, animals died out of 3) (ddy mouse (Slc:ddy)): 0/3
CCCCOc1ncc(C(=O)OCCC(C)=C(F)F)c(C)n1 [Compound 105, 4,4-difluoro-3-methyl-3-butenyl 2-butoxy-4-methyl-pyrimidine-5-carboxylate] |  | > 90% | Test result Female (mortality, animals died out of 3) (ddy mouse (Slc:ddy)): 0/3; Test result Male (mortality, animals died out of 3) (ddy mouse (Slc:ddy)): 0/3
CC(CCOC(=O)c1sc(C2CCCCC2)nc1C)=C(F)F [Compound 169, 4,4-difluoro-3-methyl-3-butenyl 2-cyclohexyl-4-methylthiazole-5-carboxylate] |  | > 90% | mortality at 500 ppm (Nilaparvata lugenis): ≥ 90%
CCN(c1ccc(C)cc1)c1nc(C)c(C(=O)OCCC(C)=C(F)F)s1 [Compound 185, 4,4-difluoro-3-methyl-3-butenyl 2-(N-ethyl-N-4-tolylamino)-4-methylthiazole-5-carboxylate] | > 90% |  | 
CC(CCOC(=O)c1cnc(-c2ccccc2)s1)=C(F)F [Compound 190, 4,4-difluoro-3-methyl-3-butenyl 2-phenylthiazole-5-carboxylate] |  | > 90% | 
CC(CCOC(=O)c1cc(-c2ccccc2)n(C)n1)=C(F)F [Compound 194, 4,4-difluoro-3-methyl-3-butenyl 1-methyl-5-phenyl-1H-pyrazole-3-carboxylate] | > 90% |  | 
CC(CCOC(=O)c1cn(-c2ccccc2)nc1C)=C(F)F [Compound 196, 4,4-difluoro-3-methyl-3-butenyl 3-methyl-1-phenyl-1H-pyrazole-4-carboxylate] |  | > 90% | 
CCCCn1ncc(C(=O)OCCC(C)=C(F)F)c1C [Compound 203, 4,4-difluoro-3-methyl-3-butenyl 1-butyl-5-methyl-1H-pyrazole-4-carboxylate] | > 90% |  | 
CCCCCc1cc(C(=O)OCCC(C)=C(F)F)n(C)n1 [Compound 208, 4,4-difluoro-3-methyl-3-butenyl 2-methyl-5-pentyl-2H-pyrazole-3-carboxylate] |  | > 90% | 
